Results taken from patent US20240041042A1, “1-(PYRIDYL)-5-AZINYLPYRAZOLE DERIVATIVES, AND THEIR USE FOR CONTROL OF UNDESIRED PLANT GROWTH” (Bayer Aktiengesellschaft, priority 2020, published 2024).

Key:
Format in all cases: in vivo
[1] = system: Digitaria sanguinalis (DIGSA); test: Post-emergence herbicidal action against DIGSA; settings: 320 g/ha, visual rating about 3 weeks after treatment
Outline: (§1)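 Rates were 320 g/ha or below, applied as aqueous WP/EC spray with 0.5% additive (600 l/ha) onto one-leaf-stage plants. About 3 weeks later in the greenhouse, damage was scored visually against untreated plants on a 0–100% scale, where 100% means plants died.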

[2] = system: Alopecurus myosuroides (ALOMY); test: Post-emergence herbicidal action against ALOMY; settings: visual rating about 3 weeks after treatment vs untreated controls (100% = plants have died, 0% = like control plants)
Outline: as §1

[3] = system: Verconica persica (VERPE); test: Post-emergence herbicidal action against VERPE
Outline: as §1

[4] = system: Pharbitis purpurea (PHBPU); test: Pre-emergence herbicidal action against PHBPU; settings: dosage 320 g/ha
Outline: (§2)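 Greenhouse pot trial: seeds sown, soil-covered, sprayed before emergence with compound in water (0.5% additive; 600 l/ha; ≤320 g/ha). Scoring visual, ~3 weeks, 0–100% scale vs untreated.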

[5] = system: Verconica persica (VERPE); test: Pre-emergence herbicidal action against VERPE; settings: dosage 320 g/ha
Outline: as §2

[6] = system: Polygonum convolvulus (POLCO); test: Pre-emergence herbicidal action against POLCO
Outline: as §2

[7] = system: Lolium rigidum (LOLRI); test: Post-emergence herbicidal action against LOLRI; settings: dosage 320 g/ha
Outline: as §1

[8] = system: Digitaria sanguinalis (DIGSA); test: Pre-emergence herbicidal action against DIGSA
Outline: as §2

[9] = system: Abutilon theophrasti (ABUTH); test: Post-emergence herbicidal action against ABUTH; settings: visual rating about 3 weeks after treatment vs untreated controls (100% = plants have died, 0% = like control plants)
Outline: as §1

[10] = system: Echinochloa crus-galli (ECHCG); test: Pre-emergence herbicidal action against ECHCG
Outline: as §2

[11] = system: Setaria viridis (SETVI); test: Pre-emergence herbicidal action against SETVI
Outline: as §2

[12] = system: Avena fatua (AVEFA); test: Post-emergence herbicidal action against AVEFA; settings: visual rating about 3 weeks after treatment
Outline: as §1

[13] = system: Amaranthus retroflexus (AMARE); test: Post-emergence herbicidal action against AMARE
Outline: as §1

[14] = system: Viola tricolor (VIOTR); test: Post-emergence herbicidal action against VIOTR
Outline: as §1

[15] = system: Pharbitis purpurea (PHBPU); test: Post-emergence herbicidal action against PHBPU
Outline: as §1

[16] = system: Polygonum convolvulus (POLCO); test: Post-emergence herbicidal action against POLCO
Outline: as §1

[17] = system: Amaranthus retroflexus (AMARE); test: Pre-emergence herbicidal action against AMARE; settings: visual scoring after about 3 weeks vs untreated controls
Outline: as §2

[18] = system: Matricaria inodora (MATIN); test: Pre-emergence herbicidal action against MATIN; settings: dosage 320 g/ha
Outline: as §2

[19] = system: Lolium rigidum (LOLRI); test: Pre-emergence herbicidal action against LOLRI
Outline: as §2

[20] = system: Matricaria inodora (MATIN); test: Post-emergence herbicidal action against MATIN
Outline: as §1

[21] = system: Setaria viridis (SETVI); test: Post-emergence herbicidal action against SETVI
Outline: as §1

[22] = system: Echinochloa crus-galli (ECHCG); test: Post-emergence herbicidal action against ECHCG
Outline: as §1

[23] = system: Avena fatua (AVEFA); test: Pre-emergence herbicidal action against AVEFA; settings: visual scoring after about 3 weeks vs untreated controls
Outline: as §2

[24] = system: Viola tricolor (VIOTR); test: Pre-emergence herbicidal action against VIOTR
Outline: as §2

[25] = system: Abutilon theophrasti (ABUTH); test: Pre-emergence herbicidal action against ABUTH; settings: Dosage column 320 g/ha (title prints 3200 g/ha); scored visually after about 3 weeks; 100% = plants have died
Outline: as §2

[26] = system: Alopecurus myosuroides (ALOMY); test: Pre-emergence herbicidal action against ALOMY; settings: scored visually after about 3 weeks, 100% = plants have died
Outline: as §2

O=C(O)COc1nn(-c2ncccc2F)c(-c2ccc(F)nc2)c1Br [Example I-08]
Post-emergence action against DIGSA in % [1]: 90%
Post-emergence action against ALOMY in % ([2]; 80 g/ha): 100%
Post-emergence action against ALOMY in % ([2]; 320 g/ha): 100%
Post-emergence action against VERPE in % ([3]; 320 g/ha, VERPE): 90%
Post-emergence action against VERPE in % ([3]; dosage 80 g/ha): 90%
Pre-emergence action against PHBPU in % [4]: 80%
Pre-emergence action against VERPE in % [5]: 100%
Pre-emergence action against POLCO in % ([6]; dosage 80 g/ha): 80%
Pre-emergence action against POLCO in % ([6]; dosage 320 g/ha): 100%
Post-emergence action against LOLRI in % [7]: 90%
Pre-emergence action against DIGSA in % ([8]; 80 g/ha, visual scoring after about 3 weeks vs untreated controls): 100%
Pre-emergence action against DIGSA in % ([8]; dosage 320 g/ha): 100%
Post-emergence action against ABUTH in % ([9]; 80 g/ha): 80%
Post-emergence action against ABUTH in % ([9]; 320 g/ha): 90%
Pre-emergence action against ECHCG in % ([10]; dosage 80 g/ha): 80%
Pre-emergence action against ECHCG in % ([10]; dosage 320 g/ha): 100%
Pre-emergence action against SETVI in % ([11]; dosage 80 g/ha): 90%
Pre-emergence action against SETVI in % ([11]; dosage 320 g/ha): 100%
Post-emergence action against AVEFA in % ([12]; 80 g/ha): 80%
Post-emergence action against AVEFA in % ([12]; 320 g/ha): 90%
Post-emergence action against AMARE in % ([13]; 80 g/ha, visual rating about 3 weeks after treatment vs untreated controls (100% = plants have died, 0% = like control plants)): 80%
Post-emergence action against AMARE in % ([13]; 320 g/ha, visual rating about 3 weeks after treatment): 90%
Post-emergence action against VIOTR in % ([14]; 80 g/ha): 80%
Post-emergence action against VIOTR in % ([14]; 320 g/ha): 80%
Post-emergence action against PHBPU in % ([15]; dosage 80 g/ha): 80%
Post-emergence action against PHBPU in % ([15]; dosage 320 g/ha): 80%
Post-emergence action against POLCO in % ([16]; dosage 80 g/ha): 90%
Post-emergence action against POLCO in % ([16]; dosage 320 g/ha): 90%
Pre-emergence action against AMARE in % ([17]; 80 g/ha): 100%
Pre-emergence action against AMARE in % ([17]; 320 g/ha): 100%
Pre-emergence action against MATIN in % [18]: 100%
Pre-emergence action against LOLRI in % ([19]; dosage 80 g/ha): 80%
Pre-emergence action against LOLRI in % ([19]; dosage 320 g/ha): 100%
Post-emergence action against MATIN in % ([20]; dosage 80 g/ha): 90%
Post-emergence action against MATIN in % ([20]; dosage 320 g/ha): 90%
Post-emergence action against SETVI in % ([21]; dosage 80 g/ha): 80%
Post-emergence action against SETVI in % ([21]; dosage 320 g/ha): 90%
Post-emergence action against ECHCG in % ([22]; dosage 80 g/ha): 80%
Post-emergence action against ECHCG in % ([22]; dosage 320 g/ha): 90%
Pre-emergence action against AVEFA in % ([23]; 80 g/ha): 80%
Pre-emergence action against AVEFA in % ([23]; 320 g/ha): 90%
Pre-emergence action against VIOTR in % ([24]; 320 g/ha, Viola tricolor): 100%
Pre-emergence action against VIOTR in % ([24]; dosage 80 g/ha): 100%
Pre-emergence action against ABUTH [25]: 80%
Pre-emergence action against ALOMY ([26]; 80 g/ha): 100%
Pre-emergence action against ALOMY ([26]; 320 g/ha): 100%
